Each structure is given as a SMILES string. pEC50: −log10 of the molar value. Some results are limits rather than exact numbers.

Our source for the EC50 values is US10844049B2, “GLP-1R agonists and uses thereof” (QILU REGOR THERAPEUTICS INC., priority 2018, dated 2020).

The target in the experiment is GLP1R (Homo sapiens, UniProt P43220). Description: GLP1R cAMP HTRF assay, HEK293/GLP-1R/CRE/Luc (HEK293T cells). It is filed as cell-based. Particulars: read-out: EC50. The method, then: GLP-1R-mediated agonist activity was determined with a cell-based functional assay utilizing an HTRF (Homogeneous Time-Resolved Fluorescence) cAMP detection kit (cAMP Dynamic 2 Assay Kit; CisBio cat #62AM4PEC) that measures cAMP levels in the cell. The method is a competitive immunoassay between native cAMP produced by the cells and exogenous cAMP labeled with the dye d2. The tracer binding is visualized by a mAb anti-cAMP labeled with Cryptate. The specific signal (i.e., energy transfer) is inversely proportional to the concentration of cAMP in either standard or experimental sample.
Sequence of GLP1R (P43220 24-463): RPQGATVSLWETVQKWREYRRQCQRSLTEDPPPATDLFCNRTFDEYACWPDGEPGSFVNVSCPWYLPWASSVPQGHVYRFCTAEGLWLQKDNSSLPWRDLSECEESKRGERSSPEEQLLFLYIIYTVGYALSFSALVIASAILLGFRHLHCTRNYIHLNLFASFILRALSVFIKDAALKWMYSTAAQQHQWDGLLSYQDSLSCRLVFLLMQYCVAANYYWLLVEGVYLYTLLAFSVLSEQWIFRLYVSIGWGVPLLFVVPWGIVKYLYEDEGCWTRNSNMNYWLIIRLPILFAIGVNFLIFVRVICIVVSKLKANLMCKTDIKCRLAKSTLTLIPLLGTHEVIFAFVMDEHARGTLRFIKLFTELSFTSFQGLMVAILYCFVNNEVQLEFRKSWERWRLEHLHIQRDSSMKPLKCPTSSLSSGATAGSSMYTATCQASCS
A cell line stably expressing the receptor was isolated.
Varying concentrations of each compound to be tested (in DMSO) were diluted in DMSO to obtain 200× compound working solution first and then 50 nl compounds were added to a white 384-well assay plate (Greiner 784075) with ECHO. The final DMSO concentration was 0.5%. The compound concentration range may be adjusted at any time.
Cells were removed from cryopreservation, re-suspended in 5 mL of Dulbecco's Phosphate Buffered Saline (DPBS-Sigma Cat # D8537) and centrifuged at 900 g for 5 min at 22° C. The cell pellet was then re-suspended in 1 mL of assay buffer [DPBS with 500 μM IBMX (Sigma #15879) and 0.1% BSA (Sigma # A1933). IBMX and BSA were freshly added on the day of assay]. A 10 μL sample of the cell suspension was counted on an Invitrogen Countess II to determine cell viability and cell count per mL. The remaining cell suspension was then adjusted with assay buffer to deliver 1000 viable cells per well using a Matrix Combi Multidrop reagent dispenser. 10 μL cell suspensions were added to each well of the assay plate which already contains compound. The plate was sealed and incubated at 37° C. with 5% CO2 for 30 minutes.
Following the 30 minute incubation, 5 μL of labeled d2 cAMP and 5 μL of anti-cAMP antibody (both diluted 1:20 in cell lysis buffer; as described in the manufacturer's assay protocol) were added to each well of the assay plate. The plates w ere then incubated at room temperature and after 60 minutes, changes in the HTRF signal were read with an Envision multi-label plate reader using excitation of 330 nm and emissions of 615 and 665 nm. Raw data were converted to nM cAMP by interpolation from a cAMP standard curve (as described in the manufacturer's assay protocol) and the percent effect was determined relative to a saturating concentration of the full agonist GLP-17-37 (10 nM) included on each plate. EC50 determinations were made from agonist dose-response curves analyzed with a curve fitting program using a 4-parameter logistic dose response equation.
3) Anti-cAMP antibody-cryptate working solution preparation • c) The lyophilisate was reconstituted with appropriate amount of distilled water according to manufacturer's instruction to make working stock which can be aliquoted and frozen (−20° C.). • d) The working stock solution was diluted 1:20 in the conjugate and lysis buffer before use. Procedures Procedures for Cell Suspension Preparation • 1. Frozen cells were thawed very briefly in a 37° C. water bath under sterile conditions until just before ice completely melt (for about 1 minute) with a continuous agitation. Caution was taken because a longer incubation could result in cell death. • 2. DMSO was removed from the media by carefully transferring thawed cells to a sterile 15/50 mL tube, filling a tube with 10-50 mL of complete media pre-warmed to 37° C., and allowing the cells to sit 5 min before centrifuging at 900 rpm for 5 minutes for cell collection. • 3. The cells were resuspended with assay buffer. • 4. For stable GLP1-R assay, the optimized cell density is 1000 cells/well. Caution was taken because cell density optimization was crucial and needed to be optimized in different laboratories. The level of cAMP produced by the cells must fall within the linear range of the standard curve.
In general terms: In TR-FRET formats the signal depends on donor and acceptor labels being close together.

Take `O=C(O)c1ccc2nc(CN3CC=C(c4nc(OCc5ccc(F)cc5F)c(F)cc4F)CC3)n(C[C@@H]3CCO3)c2c1` [Compound 216, (S)-2-((4-(6-(2,4-difluorobenzyloxy)-3,5-difluoropyridin-2-yl)-5,6-dihydropyridin-1(2H)-yl)methyl)-1-(oxetan-2-ylmethyl)-1H-benzo[d]imidazole-6-carboxylic acid]: the pEC50 (in general, the EC50 on a negative log10 scale, so that one unit is a factor of ten) was no less than 7.82.

On to `O=C(O)c1ccc2nc(CN3CC=C(c4cccc(OCc5ccc(Cl)cc5F)c4F)CC3)n(C[C@@H]3CCO3)c2c1` [Compound 40, (S)-2-((4-(3-(4-chloro-2-fluorobenzyloxy)-2-fluorophenyl)-5,6-dihydropyridin-1(2H)-yl)methyl)-1-(oxetan-2-ylmethyl)-1 h-benzo[d]imidazole-6-carboxylic add], for which the pEC50 was no less than 6.00.

For `CC#Cc1ccc(COc2cccc(C3=CCN(Cc4nc5ccc(C(=O)O)cc5n4C[C@@H]4CCO4)CC3)n2)c(F)c1` [Compound 107, (S)-2-((6-((2-fluoro-4-(prop-1-yn-1-yl)benzyl)oxy)-3′,6′-dihydro-[2,4′-pyridin]-1′(2′H)-yl)methyl)-1-(oxetan-2-ylmethyl)-1H-benzo[d]imidazole-6-carboxylic acid], the negative logarithm of the EC50 (pEC50) is no less than 7.82.

Turning to `O=C(O)c1ccc2nc(CN3CC=C(c4cccc(OCc5ccc(-n6ccnc6)cc5)n4)CC3)n(C[C@@H]3CCO3)c2c1` [Compound 154, (S)-2-((6-((4-(1H-imidazol-1-yl)benzyl)oxy)-3′,6′-dihydro-[2,4′-bipyridin]-1′(2′H)-yl)methyl)-1-(oxetan-2-ylmethyl)-1H-benzo[d]imidazole-6-carboxylic acid], the pEC50 was no less than 7.82.

Take `O=C(O)c1ccc2nc(CN3CC=C(c4ccnc(NCc5ccc(Cl)cc5F)c4)CC3)n(C[C@@H]3CCO3)c2c1` [Compound 130, (S)-2-((2′-((4-chloro-2-fluorobenzyl)amino)-3,6-dihydro-[4,4′-bipyridin]-1(2H)-yl)methyl)-1-(oxetan-2-ylmethyl)-1H-benzo[d]imidazole-6-carboxylic add]: the negative-log EC50 (pEC50) was no less than 6.00.

For the molecule `O=C(O)c1ccc2nc(CN3CC=C(c4nc(NCc5ccc(Cl)cc5F)c(F)cc4F)CC3)n(C[C@@H]3CCO3)c2c1` [Compound 133, (S)-2-((4-(6-(4-chloro-2-fluorobenzylamino)-3,5-difluoropyridin-2-yl)-5,6-dihydropyridin-1(2H)-yl)methyl)-1-(oxetan-2-ylmethyl)-1H-benzo[d]imidazole-6-carboxylic acid], the pEC50 was no less than 7.82.

Take `Cn1cnc2ccc(COc3cccc(C4=CCN(Cc5nc6ccc(C(=O)O)cc6n5C[C@@H]5CCO5)CC4)n3)cc21` [Compound 241, (S)-2-((6-((1-methyl-1H-benzo[d]imidazol-6-yl)methoxy)-3′,6′-dihydro-[2,4′-bipyridin]-(2′H)-yl)methyl)-1-(oxetan-2-ylmethyl)-1H-benzo[d]imidazole-6-carboxylic add]: the pEC50 was no less than 6.82.

For the molecule `COc1ccc(COc2cccc(C3=CCN(Cc4nc5ccc(C(=O)O)cc5n4C[C@@H]4CCO4)CC3)n2)nc1` [Compound 117, (S)-2-((6-((5-methoxypyridin-2-yl)methoxy)-3′,6′-dihydro-[2,4′-bipyridin]-1′(2′H)-yl)methyl)-1-(oxetan-2-ylmethyl)-1H-benzo[d]imidazole-6-carboxylic add], the pEC50 was no less than 7.82.

Take `O=C(O)c1ccc2nc(CN3CC=C(c4cc(F)c(F)c(OCc5ccc(Cl)cc5F)c4)CC3)n(C[C@@H]3CCO3)c2c1` [Compound 41, (S)-2-((4-(3-(4-chloro-2-fluorobenzyloxy)-4,5-difluorophenyl)-5,6-dihydropyridin-1(2H)-yl)methyl)-1-(oxetan-2-ylmethyl)-1 h-benzo[d]imidazole-6-carboxylic acid]: the negative logarithm of the EC50 (pEC50) was no less than 7.82.

In the case of `O=C(O)c1ccc2nc(CN3CC=C(c4cccc(NC5CCOc6cc(Cl)ccc65)n4)CC3)n(C[C@@H]3CCO3)c2c1` (stereo partly drawn) [Compound 61, 2-((4-(6-(7-chlorochroman-4-ylamino)pyridin-2-yl)-5,6-dihydropyridin-1(2H)-yl)methyl)-1-((S)-oxetan-2-ylmethyl)-1H-benzo[d]imidazole-6-carboxylic acid], the negative logarithm of the EC50 (pEC50) was no less than 6.00.
